# Laboratory results: patent US6423342B1, “Process for the preparation of a solid pharmaceutical dosage form” (R. P. Scherer Corporation, priority 1995, dated 2002)
# Counter-ions that a name gives are not always drawn.
# What was measured:
# Assay type in all cases: physicochemical
# [1] = Physical properties of the dosage form at varied citric acid level; conditions: citric acid levels higher than 0.5%; causing, for instance, cracking and base melting
# Text: It can be seen that a minimum level of 0.5% citric acid is required to inhibit this loss of selegiline.
# [2] = Solution pH of the dispersion at varied citric acid concentration
# [3] = Effect of storage in frozen state prior to drying on selegiline HCl assay of fast-dispersing dosage forms
# Description: (§1) 250 mg of the selegiline hydrochloride 2.0% dispersion formed in (a) above was dosed into each one of a series of pre-formed blister pockets having a pocket diameter of 12-mm. The blister laminate comprised 200 μm PVC/30 μm PE/PVDC 90 g per square metre. The product was frozen immediately in a liquid nitrogen freeze tunnel. The frozen product was then stored below −20° C. for a minimum of 24 hours prior to freeze-drying in a freeze drier using a drying temperature of +20° C. and a chamber pressure of 0.5 mbar. The freeze-dried units were then inspected for the presence of critical defects and the remainder of the batch sealed with lidding foil consisting of a paper/foil laminate (20 μm aluminium). Each blister was then coded with a batch number and over-wrapped in a preformed sachet by placing the blister in the sachet and sealing the open end of the sachet completely. Each sachet was then labeled with the product name, batch number, date of manufacture and suppliers name.
# Two batches of selegiline fast-dispersing dosage forms manufactured as described in Example I were stored at different temperatures in the frozen state prior to drying.
# [4] = Effect of pH modification (citric acid level) on stability of selegiline hydrochloride fast-dispersing dosage forms stored at 40° C./80% relative humidity; parameters: unit not given beside the values
# Description: Gelatin (720 g) and mannitol (540 g) were dispersed in a portion of purified water (15.73 kg) by mixing thoroughly in the bowl of a vacuum mixer. The remaining water (1.5 litres) was added under vacuum while mixing using an anchor stirrer. The mix was then heated to 40° C.±2° C. and homogenized for ten minutes. The mix was cooled down to room temperature. When cooled, a 4500 g portion of the mix was removed into a stainless steel vessel and glycine (360 g), aspartame (90 g), grapefruit flavor (54 g), Opatint yellow (54 g) and citric acid (90 g) were then added sequentially to this portion while homogenizing using a bench top homogenizer. The remainder of the mix was transferred into a second stainless steel vessel. Selegiline hydrochloride (360 g) was then added to the mix in the second vessel and the mix homogenized for ten minutes using a bench top mixer to dissolve the drug. Once dispersion of the coloring agent was complete, the portion of the mix removed to the first vessel was returned to the mixer bowl together with the homogenized mix from the second vessel. The combined mixes were then mixed for at least 20 minutes. The bulk dispersion was then homogenized to ensure that mixing was complete.
# as §1
# A series of dosage forms were manufactured as described in Example 1 but the quantity of citric acid used was varied. The dosage forms were then stored at 40° C./80% relative humidity for up to 7 weeks and the quantity of selegiline hydrochloride in these dosage forms was assayed at regular intervals.
structure (smiles),measurement,setting,value
"C#CCN(C)C(C)Cc1ccccc1 (single isomer, unassigned; (-)) [selegiline hydrochloride, (−)-N,α-dimethyl-N-2-propynylphenethylamine]",effect on the physical properties of the dosage form,[1],deleterious effect
same,Solution pH,[2]; Conc. of citric acid 0 % w/w,5.38
same,Solution pH,[2]; Conc. of citric acid 0.25 % w/w,4.21
same,Solution pH,[2]; Conc. of citric acid 0.50 % w/w,3.82
same,Solution pH,[2]; Conc. of citric acid 1.0 % w/w,3.45
same,Solution pH,[2]; Conc. of citric acid 2.0 % w/w,3.11
same,Assay Selegiline HCI,"[3]; Frozen storage temperature −20 ° C. prior to drying, 2 week",4.97 mg
same,Assay Selegiline HCI,"[3]; Frozen storage temperature −20 ° C. prior to drying, 4 week",4.98 mg
same,Assay Selegiline HCI,"[3]; Frozen storage temperature −20 ° C. prior to drying, Time = 0",5.01 mg
same,Assay Selegiline HCI,"[3]; Frozen storage temperature −25 ° C. prior to drying, 1 week",4.85 mg
same,Assay Selegiline HCI,"[3]; Frozen storage temperature −25 ° C. prior to drying, 2 week",4.79 mg
same,Assay Selegiline HCI,"[3]; Frozen storage temperature −25 ° C. prior to drying, 4 week",4.74 mg
same,Assay Selegiline HCI,"[3]; Frozen storage temperature −25 ° C. prior to drying, Time = 0",4.87 mg
same,quantity of selegiline hydrochloride in dosage form,"[4]; citric acid 0 % w/w, solution pH 5.38, 1 week at 40° C./80% relative humidity",3.86
same,quantity of selegiline hydrochloride in dosage form,"[4]; citric acid 0 % w/w, solution pH 5.38, 2 week at 40° C./80% relative humidity",3.31
same,quantity of selegiline hydrochloride in dosage form,"[4]; citric acid 0 % w/w, solution pH 5.38, 4 week at 40° C./80% relative humidity",3.32
same,quantity of selegiline hydrochloride in dosage form,"[4]; citric acid 0 % w/w, solution pH 5.38, Time = 0",4.79
same,quantity of selegiline hydrochloride in dosage form,"[4]; citric acid 0.25 % w/w, solution pH 4.21, 1 week at 40° C./80% relative humidity",4.70
same,quantity of selegiline hydrochloride in dosage form,"[4]; citric acid 0.25 % w/w, solution pH 4.21, 2 week at 40° C./80% relative humidity",4.67
same,quantity of selegiline hydrochloride in dosage form,"[4]; citric acid 0.25 % w/w, solution pH 4.21, 4 week at 40° C./80% relative humidity",4.74
same,quantity of selegiline hydrochloride in dosage form,"[4]; citric acid 0.25 % w/w, solution pH 4.21, 7 week at 40° C./80% relative humidity",4.65
same,quantity of selegiline hydrochloride in dosage form,"[4]; citric acid 0.25 % w/w, solution pH 4.21, Time = 0",4.95
same,quantity of selegiline hydrochloride in dosage form,"[4]; citric acid 0.50 % w/w, solution pH 3.82, 1 week at 40° C./80% relative humidity",4.98
same,quantity of selegiline hydrochloride in dosage form,"[4]; citric acid 0.50 % w/w, solution pH 3.82, 2 week at 40° C./80% relative humidity",4.98
same,quantity of selegiline hydrochloride in dosage form,"[4]; citric acid 0.50 % w/w, solution pH 3.82, 4 week at 40° C./80% relative humidity",4.98
same,quantity of selegiline hydrochloride in dosage form,"[4]; citric acid 0.50 % w/w, solution pH 3.82, 7 week at 40° C./80% relative humidity",4.96
same,quantity of selegiline hydrochloride in dosage form,"[4]; citric acid 0.50 % w/w, solution pH 3.82, Time = 0",5.05
same,quantity of selegiline hydrochloride in dosage form,"[4]; citric acid 1.0 % w/w, solution pH 3.45, 1 week at 40° C./80% relative humidity",5.03
same,quantity of selegiline hydrochloride in dosage form,"[4]; citric acid 1.0 % w/w, solution pH 3.45, 2 week at 40° C./80% relative humidity",5.04
same,quantity of selegiline hydrochloride in dosage form,"[4]; citric acid 1.0 % w/w, solution pH 3.45, 4 week at 40° C./80% relative humidity",5.05
same,quantity of selegiline hydrochloride in dosage form,"[4]; citric acid 1.0 % w/w, solution pH 3.45, 7 week at 40° C./80% relative humidity",5.00
same,quantity of selegiline hydrochloride in dosage form,"[4]; citric acid 1.0 % w/w, solution pH 3.45, Time = 0",5.07
same,quantity of selegiline hydrochloride in dosage form,"[4]; citric acid 2.0 % w/w, solution pH 3.11, 1 week at 40° C./80% relative humidity",4.99
same,quantity of selegiline hydrochloride in dosage form,"[4]; citric acid 2.0 % w/w, solution pH 3.11, 2 week at 40° C./80% relative humidity",5.01
same,quantity of selegiline hydrochloride in dosage form,"[4]; citric acid 2.0 % w/w, solution pH 3.11, 4 week at 40° C./80% relative humidity",5.02
same,quantity of selegiline hydrochloride in dosage form,"[4]; citric acid 2.0 % w/w, solution pH 3.11, 7 week at 40° C./80% relative humidity",4.96
same,quantity of selegiline hydrochloride in dosage form,"[4]; citric acid 2.0 % w/w, solution pH 3.11, Time = 0",5.04
